# EPA's ToxValDB 9.5 (doi:10.2903/j.efsa.2010.1872)
# Legend:
# Typhlodromus pyri [1] = assay: LR50; higher = less toxic; details: not reported; mortality
# Folsomia candida = details: chronic/long-term; duration: 28 days; mortality
# Typhlodromus pyri [2] = details: chronic/long-term; mortality
# Anas platyrhynchos = details: oral, mortality
# Tagia sp. = details: acute, duration: 14 days
# Bibionidae = details: chronic/long-term; duration: 28 days; development
# Daphnia magna = details: chronic/long-term; duration: 21 days
# Apis mellifera = details: acute; oral; unspecified; mortality
# [3] = reproduction developmental, reproduction
structure (smiles),measurement,setting,value
CC1(C)[C@H](C(=O)O[C@H](C#N)c2cccc(Oc3ccccc3)c2)[C@@H]1/C=C\C(=O)OC(C(F)(F)F)C(F)(F)F [Acrinathrin],LR50,Typhlodromus pyri [1],0.006 g/ha
same,NOEC,Folsomia candida,< 1 mg/kg
same,LC50,"Pimephales promelas; acute, duration: 96 hours, mortality",1.7 ng/mL
same,NOEC,"Pimephales promelas; chronic/long-term, duration: 21 days",1.1e-05 mg/L
same,NOEC,Typhlodromus pyri [2],0.00068 g/ha
same,LD50,"Anas platyrhynchos; acute, unspecified",> 2000 mg/kg-day
same,NOEC,"Anas platyrhynchos; short-term, feed",173 mg/kg-day
same,LD50,"Colinus virginianus; acute, oral, mortality",> 2250 mg/kg-day
same,NOEC,Colinus virginianus; [3],19.9 mg/kg-day
same,NOEC,"Colinus virginianus; short-term, oral, diet, mortality",325 mg/kg-day
same,NOEC,Tagia sp.,1.6 mg/kg
same,LC50,Tagia sp.; mortality,> 1000 mg/kg
same,NOEC,Bibionidae,3.1e-05 mg/L
same,NOEC,Daphnia magna,3.2e-06 mg/L
same,LD50,Apis mellifera,0.077 µg/piece
same,NOAEL,"Rattus norvegicus; acute, neurology",1 mg/kg-day
same,LD50,"Rattus norvegicus; acute, oral, mortality",> 5000 mg/kg-day
same,NOAEL,Rattus norvegicus; [3],9.4 mg/kg-day
same,NOEL,Rattus norvegicus; [3],2.5 mg/kg-day
